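Cultured in 96-well plates, cells were exposed to test compound for 48 hours across five concentrations. The concentration for full growth arrest is given as TGI.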
Legend:
Experiment in all cases: inhibition of tumour cell growth, NCI panel, 48 h
HT29 colon = tested on: HT29 colon
MDA-MB-435 = tested on: MDA-MB-435
BT-549 breast = tested on: BT-549 breast
RPMI-8226 leukemia = tested on: RPMI-8226 leukemia
UACC-257 melanoma = tested on: UACC-257 melanoma
OVCAR-3 ovarian = tested on: OVCAR-3 ovarian
K-562 leukemia = tested on: K-562 leukemia
SNB-19 CNS = tested on: SNB-19 CNS
SR leukemia = tested on: SR leukemia
UACC-62 melanoma = tested on: UACC-62 melanoma
LOX IMVI melanoma = tested on: LOX IMVI melanoma
SF-539 CNS = tested on: SF-539 CNS
SF-268 CNS = tested on: SF-268 CNS
RXF 393 renal = tested on: RXF 393 renal
NCI-H226 lung = tested on: NCI-H226 lung
HL-60(TB) leukemia = tested on: HL-60(TB) leukemia
SK-OV-3 ovarian = tested on: SK-OV-3 ovarian
MCF7 breast = tested on: MCF7 breast
HCT-15 colon = tested on: HCT-15 colon
IGROV1 ovarian = tested on: IGROV1 ovarian
SK-MEL-2 melanoma = tested on: SK-MEL-2 melanoma
UO-31 renal = tested on: UO-31 renal
A549 NSCLC = tested on: A549 NSCLC
OVCAR-5 ovarian = tested on: OVCAR-5 ovarian
OVCAR-4 ovarian = tested on: OVCAR-4 ovarian
HOP-92 NSCLC = tested on: HOP-92 NSCLC
PC-3 prostate = tested on: PC-3 prostate
NCI/ADR-RES ovarian = tested on: NCI/ADR-RES ovarian
NCI-H23 lung = tested on: NCI-H23 lung
TK-10 renal = tested on: TK-10 renal
SF-295 CNS = tested on: SF-295 CNS
MDA-N = tested on: MDA-N
ACHN renal = tested on: ACHN renal
EKVX NSCLC = tested on: EKVX NSCLC
CCRF-CEM leukemia = tested on: CCRF-CEM leukemia
KM12 colon = tested on: KM12 colon
HCT-116 colon = tested on: HCT-116 colon
U251 CNS = tested on: U251 CNS
HS 578T breast = tested on: HS 578T breast
NCI-H460 lung = tested on: NCI-H460 lung
MOLT-4 leukemia = tested on: MOLT-4 leukemia
HOP-62 NSCLC = tested on: HOP-62 NSCLC
SN12C renal = tested on: SN12C renal
CAKI-1 renal = tested on: CAKI-1 renal
NCI-H522 lung = tested on: NCI-H522 lung
M14 melanoma = tested on: M14 melanoma
A498 renal = tested on: A498 renal
HCC-2998 colon = tested on: HCC-2998 colon
SK-MEL-28 melanoma = tested on: SK-MEL-28 melanoma
SNB-75 CNS = tested on: SNB-75 CNS
MDA-MB-231 breast = tested on: MDA-MB-231 breast
OVCAR-8 ovarian = tested on: OVCAR-8 ovarian
SW-620 colon = tested on: SW-620 colon
T-47D breast = tested on: T-47D breast
SK-MEL-5 melanoma = tested on: SK-MEL-5 melanoma
DU-145 prostate = tested on: DU-145 prostate
MALME-3M melanoma = tested on: MALME-3M melanoma
786-0 renal = tested on: 786-0 renal
COLO 205 colon = tested on: COLO 205 colon

Compound: CC(=O)OCC1OC(OCCCCCCO)C(OC(C)=O)C(OC(C)=O)C1OC(C)=O (configuration not stated)
- TGI (HT29 colon): > 100 µM
- TGI (MDA-MB-435): > 100 µM
- TGI (BT-549 breast): > 100 µM
- TGI (RPMI-8226 leukemia): > 100 µM
- TGI (UACC-257 melanoma): > 100 µM
- TGI (OVCAR-3 ovarian): > 100 µM
- TGI (K-562 leukemia): > 100 µM
- TGI (SNB-19 CNS): > 100 µM
- TGI (SR leukemia): > 100 µM
- TGI (UACC-62 melanoma): > 100 µM
- TGI (LOX IMVI melanoma): > 100 µM
- TGI (SF-539 CNS): > 100 µM
- TGI (SF-268 CNS): > 100 µM
- TGI (RXF 393 renal): > 100 µM
- TGI (NCI-H226 lung): > 100 µM
- TGI (HL-60(TB) leukemia): > 100 µM
- TGI (SK-OV-3 ovarian): > 100 µM
- TGI (MCF7 breast): > 100 µM
- TGI (HCT-15 colon): > 100 µM
- TGI (IGROV1 ovarian): > 100 µM
- TGI (SK-MEL-2 melanoma): > 100 µM
- TGI (UO-31 renal): > 100 µM
- TGI (A549 NSCLC): > 100 µM
- TGI (OVCAR-5 ovarian): > 100 µM
- TGI (OVCAR-4 ovarian): > 100 µM
- TGI (HOP-92 NSCLC): > 100 µM
- TGI (PC-3 prostate): > 100 µM
- TGI (NCI/ADR-RES ovarian): > 100 µM
- TGI (NCI-H23 lung): > 100 µM
- TGI (TK-10 renal): > 100 µM
- TGI (SF-295 CNS): > 100 µM
- TGI (MDA-N): > 100 µM
- TGI (ACHN renal): > 100 µM
- TGI (EKVX NSCLC): > 100 µM
- TGI (CCRF-CEM leukemia): > 100 µM
- TGI (KM12 colon): > 100 µM
- TGI (HCT-116 colon): > 100 µM
- TGI (U251 CNS): > 100 µM
- TGI (HS 578T breast): > 100 µM
- TGI (NCI-H460 lung): > 100 µM
- TGI (MOLT-4 leukemia): > 100 µM
- TGI (HOP-62 NSCLC): > 100 µM
- TGI (SN12C renal): > 100 µM
- TGI (CAKI-1 renal): > 100 µM
- TGI (NCI-H522 lung): > 100 µM
- TGI (M14 melanoma): > 100 µM
- TGI (A498 renal): > 100 µM
- TGI (HCC-2998 colon): > 100 µM
- TGI (SK-MEL-28 melanoma): > 100 µM
- TGI (SNB-75 CNS): > 100 µM
- TGI (MDA-MB-231 breast): > 100 µM
- TGI (OVCAR-8 ovarian): > 100 µM
- TGI (SW-620 colon): > 100 µM

Compound: CCCCCCCC(CC(=O)NC(CO)C(=O)NC(CO)CC(C)C)OC(=O)CC(CCCCCCC)OC(=O)CC(CCCCCCC)OC1OC(C)C(O)C(OC2OC(C)C(O)C(O)C2OC(C)=O)C1O (configuration not stated)
- TGI (HT29 colon): 13.7 µM
- TGI (MDA-MB-435): 13.8 µM
- TGI (BT-549 breast): 25.1 µM
- TGI (UACC-257 melanoma): 13.5 µM
- TGI (T-47D breast): 21 µM
- TGI (OVCAR-3 ovarian): 25.6 µM
- TGI (K-562 leukemia): 16.8 µM
- TGI (SNB-19 CNS): 20.8 µM
- TGI (SR leukemia): 4.93 µM
- TGI (SK-MEL-5 melanoma): 21.7 µM
- TGI (UACC-62 melanoma): 18.6 µM
- TGI (SF-539 CNS): 23.5 µM
- TGI (SF-268 CNS): 21.2 µM
- TGI (RXF 393 renal): 9.29 µM
- TGI (DU-145 prostate): 22.4 µM
- TGI (NCI-H226 lung): 39 µM
- TGI (HL-60(TB) leukemia): 10.4 µM
- TGI (SK-OV-3 ovarian): 30.3 µM
- TGI (MCF7 breast): 23.8 µM
- TGI (IGROV1 ovarian): 23 µM
- TGI (UO-31 renal): 30.7 µM
- TGI (A549 NSCLC): 25.9 µM
- TGI (MALME-3M melanoma): 23.2 µM
- TGI (OVCAR-5 ovarian): 21.9 µM
- TGI (OVCAR-4 ovarian): 19.9 µM
- TGI (HOP-92 NSCLC): 22 µM
- TGI (PC-3 prostate): 15.8 µM
- TGI (NCI-H23 lung): 22 µM
- TGI (TK-10 renal): 26 µM
- TGI (SF-295 CNS): 21.7 µM
- TGI (MDA-N): 16 µM
- TGI (ACHN renal): 28.9 µM
- TGI (EKVX NSCLC): 27.9 µM
- TGI (CCRF-CEM leukemia): 11.8 µM
- TGI (KM12 colon): 10.8 µM
- TGI (HCT-116 colon): 15.1 µM
- TGI (U251 CNS): 20.1 µM
- TGI (HS 578T breast): 19.1 µM
- TGI (NCI-H460 lung): 15.4 µM
- TGI (MOLT-4 leukemia): 10.5 µM
- TGI (HOP-62 NSCLC): 27.1 µM
- TGI (786-0 renal): 17.6 µM
- TGI (SN12C renal): 16.8 µM
- TGI (CAKI-1 renal): 28.3 µM
- TGI (NCI-H522 lung): 26.8 µM
- TGI (M14 melanoma): 18.7 µM
- TGI (A498 renal): 29.4 µM
- TGI (HCC-2998 colon): 25.8 µM
- TGI (SK-MEL-28 melanoma): 21.6 µM
- TGI (SNB-75 CNS): 17.6 µM
- TGI (MDA-MB-231 breast): 21.5 µM
- TGI (COLO 205 colon): 5.47 µM
- TGI (OVCAR-8 ovarian): 22.4 µM
- TGI (SW-620 colon): 22.2 µM

From PubChem BioAssay (NCI)
